Laboratory results reported in paper PMC10360995, “Discovery of 3-((3-amino-1H-indazol-4-yl)ethynyl)-N-(4-((4-ethylpiperazin-1-yl)methyl)-3-(trifluoromethyl)phenyl)benzamide (AKE-72), a potent Pan-BCR-ABL inhibitor including the T315I gatekeeper resistant mutant” (Journal of Enzyme Inhibition and Medicinal Chemistry, 2023).
Read-outs that look alike come from different tables or passages of the source.

Key:
MOLT-4 = test: NCI SRB anti-leukemic assay
K-562 = test: NCI SRB anti-leukemic assay
BCR-ABL^WT = BCR-ABL^WT (Homo sapiens, UniProt P00519); test: BCR-ABL WT kinase inhibition assay; assay type: biochemical
LYN = LYN (Homo sapiens, UniProt P07948); test: Kinase panel profiling at 50 nM; assay type: biochemical; settings: range given for ten kinases together
Procedure: (§1) Figure 3. Enzyme inhibition percentage (relative to DMSO controls) of compound 5 (0.05 µM) against a panel of 18 kinases.

VEGFR2 = VEGFR2 (Homo sapiens, UniProt P35968); test: Kinase panel profiling at 50 nM; assay type: biochemical; settings: range given for ten kinases together
Procedure: as §1

c-Kit = c-Kit (Homo sapiens, UniProt P10721); test: Kinase panel profiling at 50 nM; assay type: biochemical; settings: range given for ten kinases together
Procedure: as §1

[1] = tested on: the other investigated kinases (panel of 18 kinases); test: Kinase panel profiling at 50 nM; assay type: biochemical
Procedure: as §1

FLT3 = FLT3 (Homo sapiens, UniProt P36888); test: Kinase panel profiling at 50 nM; assay type: biochemical; settings: range given for ten kinases together
Sequence of FLT3 (P36888 27-993): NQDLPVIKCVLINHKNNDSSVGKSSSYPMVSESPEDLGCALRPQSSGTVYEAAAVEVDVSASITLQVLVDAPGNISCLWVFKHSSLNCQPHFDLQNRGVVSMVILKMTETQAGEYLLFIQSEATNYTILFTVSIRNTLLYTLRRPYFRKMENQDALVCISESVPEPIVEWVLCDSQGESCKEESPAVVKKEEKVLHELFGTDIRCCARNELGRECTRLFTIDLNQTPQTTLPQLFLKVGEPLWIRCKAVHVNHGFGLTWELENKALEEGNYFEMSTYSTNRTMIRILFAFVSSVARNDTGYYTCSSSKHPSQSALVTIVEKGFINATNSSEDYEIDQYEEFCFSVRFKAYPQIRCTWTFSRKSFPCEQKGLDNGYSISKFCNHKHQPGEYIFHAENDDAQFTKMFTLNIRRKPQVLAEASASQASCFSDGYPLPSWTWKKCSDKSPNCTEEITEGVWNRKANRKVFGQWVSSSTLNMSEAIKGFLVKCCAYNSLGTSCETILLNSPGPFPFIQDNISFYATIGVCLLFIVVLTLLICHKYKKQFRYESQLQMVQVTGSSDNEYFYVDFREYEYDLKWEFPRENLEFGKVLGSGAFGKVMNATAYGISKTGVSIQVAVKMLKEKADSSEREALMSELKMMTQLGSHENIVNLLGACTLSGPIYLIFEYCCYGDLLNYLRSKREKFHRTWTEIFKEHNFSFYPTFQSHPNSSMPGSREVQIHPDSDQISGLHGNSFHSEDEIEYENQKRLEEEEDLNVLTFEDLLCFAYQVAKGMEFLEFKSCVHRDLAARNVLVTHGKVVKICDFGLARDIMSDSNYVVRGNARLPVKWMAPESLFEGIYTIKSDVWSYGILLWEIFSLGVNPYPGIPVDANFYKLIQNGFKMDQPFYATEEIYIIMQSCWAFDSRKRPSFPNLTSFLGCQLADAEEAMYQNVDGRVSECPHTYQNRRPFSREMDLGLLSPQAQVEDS
Procedure: as §1

FGFR1 = FGFR1 (Homo sapiens, UniProt P11362); test: Kinase panel profiling at 50 nM; assay type: biochemical; settings: range given for ten kinases together
Procedure: as §1

FMS = FMS (Homo sapiens, UniProt P07333); test: Kinase panel profiling at 50 nM; assay type: biochemical; settings: range printed for c-Src and FMS together
Procedure: as §1

c-Src = c-Src (Homo sapiens, UniProt P12931); test: Kinase panel profiling at 50 nM; assay type: biochemical; settings: range printed for c-Src and FMS together
Sequence of c-Src (P12931 whole entry): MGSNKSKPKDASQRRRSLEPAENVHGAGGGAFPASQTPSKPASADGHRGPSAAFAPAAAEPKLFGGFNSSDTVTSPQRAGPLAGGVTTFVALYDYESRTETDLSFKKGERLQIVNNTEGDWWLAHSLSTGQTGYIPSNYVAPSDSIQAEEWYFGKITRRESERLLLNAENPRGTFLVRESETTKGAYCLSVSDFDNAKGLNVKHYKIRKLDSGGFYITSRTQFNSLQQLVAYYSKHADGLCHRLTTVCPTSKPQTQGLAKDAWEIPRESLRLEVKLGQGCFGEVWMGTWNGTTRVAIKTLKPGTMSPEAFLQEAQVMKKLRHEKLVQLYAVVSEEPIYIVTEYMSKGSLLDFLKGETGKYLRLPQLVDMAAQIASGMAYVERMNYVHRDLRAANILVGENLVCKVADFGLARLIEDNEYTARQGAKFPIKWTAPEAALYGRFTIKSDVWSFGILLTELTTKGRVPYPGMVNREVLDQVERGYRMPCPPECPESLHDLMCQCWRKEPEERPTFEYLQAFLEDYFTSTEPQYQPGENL
Procedure: as §1

FYN = FYN (Homo sapiens, UniProt P06241); test: Kinase panel profiling at 50 nM; assay type: biochemical; settings: range given for ten kinases together
Procedure: as §1

RET = RET (Homo sapiens, UniProt P07949); test: Kinase panel profiling at 50 nM; assay type: biochemical; settings: range given for ten kinases together
Procedure: as §1

PDGFRβ = PDGFRβ (Homo sapiens, UniProt P09619); test: Kinase panel profiling at 50 nM; assay type: biochemical; settings: range given for ten kinases together
Sequence of PDGFRβ (P09619 33-1106): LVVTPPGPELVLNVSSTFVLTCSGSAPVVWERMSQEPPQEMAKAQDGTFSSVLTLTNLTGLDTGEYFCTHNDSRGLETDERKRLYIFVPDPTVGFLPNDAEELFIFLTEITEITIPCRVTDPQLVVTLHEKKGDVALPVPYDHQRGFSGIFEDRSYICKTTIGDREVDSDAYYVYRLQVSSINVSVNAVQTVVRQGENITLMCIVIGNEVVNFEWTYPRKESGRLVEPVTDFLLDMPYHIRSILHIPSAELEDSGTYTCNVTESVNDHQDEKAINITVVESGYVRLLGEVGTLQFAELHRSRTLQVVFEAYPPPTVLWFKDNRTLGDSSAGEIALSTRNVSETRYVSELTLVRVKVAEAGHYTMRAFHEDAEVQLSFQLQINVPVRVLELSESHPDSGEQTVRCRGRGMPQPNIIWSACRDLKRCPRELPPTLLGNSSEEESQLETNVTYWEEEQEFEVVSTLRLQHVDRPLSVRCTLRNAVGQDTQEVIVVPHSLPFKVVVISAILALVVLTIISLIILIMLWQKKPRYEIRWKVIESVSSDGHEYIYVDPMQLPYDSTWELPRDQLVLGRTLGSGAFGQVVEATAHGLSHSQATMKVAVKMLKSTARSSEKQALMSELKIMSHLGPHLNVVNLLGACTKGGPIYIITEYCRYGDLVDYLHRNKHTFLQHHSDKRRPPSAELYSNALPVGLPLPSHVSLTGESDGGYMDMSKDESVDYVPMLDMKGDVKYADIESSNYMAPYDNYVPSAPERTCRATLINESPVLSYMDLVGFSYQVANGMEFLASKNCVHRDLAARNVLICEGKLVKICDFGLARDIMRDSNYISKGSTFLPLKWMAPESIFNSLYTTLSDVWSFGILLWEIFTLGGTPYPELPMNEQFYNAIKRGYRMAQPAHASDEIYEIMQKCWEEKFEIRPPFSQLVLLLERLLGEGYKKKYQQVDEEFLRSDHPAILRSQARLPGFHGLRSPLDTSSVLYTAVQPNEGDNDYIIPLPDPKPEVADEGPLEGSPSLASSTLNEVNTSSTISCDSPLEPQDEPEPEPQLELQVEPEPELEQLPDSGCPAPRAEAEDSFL
Procedure: as §1

LCK = LCK (Homo sapiens, UniProt P06239); test: Kinase panel profiling at 50 nM; assay type: biochemical; settings: range given for ten kinases together
Sequence of LCK (P06239 whole entry): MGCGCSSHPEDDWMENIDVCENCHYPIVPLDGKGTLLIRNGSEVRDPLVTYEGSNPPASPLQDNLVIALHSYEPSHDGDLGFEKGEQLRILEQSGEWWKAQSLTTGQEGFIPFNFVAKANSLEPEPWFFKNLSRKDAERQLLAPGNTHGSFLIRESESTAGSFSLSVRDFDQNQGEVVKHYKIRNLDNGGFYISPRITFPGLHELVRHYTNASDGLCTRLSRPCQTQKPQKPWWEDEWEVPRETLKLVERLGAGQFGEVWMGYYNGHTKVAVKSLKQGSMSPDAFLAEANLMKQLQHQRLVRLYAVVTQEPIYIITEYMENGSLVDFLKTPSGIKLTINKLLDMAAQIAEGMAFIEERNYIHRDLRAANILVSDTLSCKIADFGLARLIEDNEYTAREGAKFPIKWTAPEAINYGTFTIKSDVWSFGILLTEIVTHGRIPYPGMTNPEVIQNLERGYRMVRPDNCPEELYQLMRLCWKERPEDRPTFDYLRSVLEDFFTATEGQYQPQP
Procedure: as §1

YES = YES (Homo sapiens, UniProt P07947); test: Kinase panel profiling at 50 nM; assay type: biochemical; settings: range given for ten kinases together
Procedure: as §1

HL-60(TB) [2] = test: cells; settings: Homo sapiens
RPMI-8226 = test: NCI SRB anti-leukemic assay
SR = test: NCI SRB anti-leukemic assay
HL-60(TB) [3] = settings: five-dose assay
CYP3A4 = molecular target: T1, CYP3A4 (Homo sapiens, UniProt P08684); test: Cytochrome P450 inhibition assay (Vivid CYP450 kit); assay type: in vitro ADME; settings: single-dose duplicate, read-out: CYP inhibition % CYP3A4
T1 construct: purchased ThermoFisher (Vivid CYP450 screening kit), run at RBC
T1 sequence (P08684 whole entry): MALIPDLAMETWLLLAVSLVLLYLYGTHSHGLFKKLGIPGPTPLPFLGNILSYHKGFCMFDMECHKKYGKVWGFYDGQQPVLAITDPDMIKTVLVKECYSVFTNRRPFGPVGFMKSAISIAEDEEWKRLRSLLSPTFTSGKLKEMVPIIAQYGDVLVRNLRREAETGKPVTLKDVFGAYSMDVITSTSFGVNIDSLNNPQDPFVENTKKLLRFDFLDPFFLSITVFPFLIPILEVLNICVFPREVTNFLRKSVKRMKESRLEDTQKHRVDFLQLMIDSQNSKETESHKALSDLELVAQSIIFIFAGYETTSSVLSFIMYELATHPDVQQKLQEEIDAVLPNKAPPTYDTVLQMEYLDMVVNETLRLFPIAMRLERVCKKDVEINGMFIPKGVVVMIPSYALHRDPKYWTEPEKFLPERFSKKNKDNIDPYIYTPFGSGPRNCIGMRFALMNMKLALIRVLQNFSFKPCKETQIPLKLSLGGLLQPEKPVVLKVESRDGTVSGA
Excerpt: (§2) Azole derivatives are well known for their ability to inhibit cytochrome P450 isozymes.
(§3) 1.8. Cytochrome P450 Assay
(§4) The binding site was defined based

CYP2C9 = molecular target: T2, CYP2C9 (Homo sapiens, UniProt P11712); test: as above; assay type: in vitro ADME; settings: recombinant CYP2C9 (Vivid CYP450 screening kit), single-dose duplicate, read-out: CYP inhibition % CYP2C9
T2 construct: purchased ThermoFisher (Vivid CYP450 screening kit), run at RBC
Excerpt: as §2, §3, §4

CYP2D6 = molecular target: T3, CYP2D6 (Homo sapiens, UniProt P10635); test: as above; assay type: in vitro ADME
T3 construct: purchased ThermoFisher (Vivid CYP450 screening kit), run at RBC
T3 sequence (P10635 whole entry): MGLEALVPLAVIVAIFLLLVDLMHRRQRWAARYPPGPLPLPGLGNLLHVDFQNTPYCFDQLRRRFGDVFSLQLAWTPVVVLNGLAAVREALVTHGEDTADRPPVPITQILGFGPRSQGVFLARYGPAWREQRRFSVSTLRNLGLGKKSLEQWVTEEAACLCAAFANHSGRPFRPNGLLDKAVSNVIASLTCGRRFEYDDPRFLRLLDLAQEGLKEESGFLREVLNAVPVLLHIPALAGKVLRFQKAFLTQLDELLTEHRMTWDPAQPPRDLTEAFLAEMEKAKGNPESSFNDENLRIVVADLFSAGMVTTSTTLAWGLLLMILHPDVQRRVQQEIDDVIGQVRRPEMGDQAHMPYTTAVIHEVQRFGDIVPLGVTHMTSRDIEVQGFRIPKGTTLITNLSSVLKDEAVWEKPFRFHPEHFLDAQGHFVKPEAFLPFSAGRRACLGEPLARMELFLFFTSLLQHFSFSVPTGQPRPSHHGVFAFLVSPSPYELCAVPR
Excerpt: as §2, §3, §4

CYP1A2 = molecular target: T4, CYP1A2 (Homo sapiens, UniProt P05177); test: as above; assay type: in vitro ADME
T4 construct: purchased ThermoFisher (Vivid CYP450 screening kit), run at RBC
T4 sequence (P05177 whole entry): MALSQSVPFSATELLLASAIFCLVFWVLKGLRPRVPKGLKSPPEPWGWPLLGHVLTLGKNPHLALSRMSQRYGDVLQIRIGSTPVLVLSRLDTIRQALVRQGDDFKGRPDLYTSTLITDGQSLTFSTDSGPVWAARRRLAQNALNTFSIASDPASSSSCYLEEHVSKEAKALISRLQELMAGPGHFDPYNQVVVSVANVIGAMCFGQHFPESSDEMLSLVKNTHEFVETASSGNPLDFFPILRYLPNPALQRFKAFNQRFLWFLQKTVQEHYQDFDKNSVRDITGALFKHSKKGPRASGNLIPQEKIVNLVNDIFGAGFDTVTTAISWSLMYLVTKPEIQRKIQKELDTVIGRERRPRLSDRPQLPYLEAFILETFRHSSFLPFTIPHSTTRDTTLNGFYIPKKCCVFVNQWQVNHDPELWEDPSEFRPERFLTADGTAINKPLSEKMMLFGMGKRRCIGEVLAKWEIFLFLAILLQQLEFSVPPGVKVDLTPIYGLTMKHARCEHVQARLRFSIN
Excerpt: as §2, §3, §4

ABL^E255K = ABL^E255K (Homo sapiens, UniProt P00519, E255K); test: ABL mutant enzymatic assay; assay type: biochemical; settings: 10-dose, 3-fold dilution from 20 μM, 10 μM ATP
Excerpt: (§5) Compound 5 (AKE-72) was further profiled against a number of clinically relevant ABL mutants, including E255K, F317I, H396P, M351T, and Q252H (Table 2). This outcome confirmed the ability of compound 5 to potently suppress the activity of the clinically relevant ABL mutants in single-digit nanomolar IC50 values.

ABL^F317I = ABL^F317I (Homo sapiens, UniProt P00519, F317I); test: ABL mutant enzymatic assay; assay type: biochemical; settings: 10-dose, 3-fold dilution from 20 μM, 10 μM ATP
Excerpt: as §5

ABL^M351T = ABL^M351T (Homo sapiens, UniProt P00519, M351T); test: ABL mutant enzymatic assay; assay type: biochemical; settings: 10-dose, 3-fold dilution from 20 μM, 10 μM ATP
Excerpt: as §5

ABL^Q252H = ABL^Q252H (Homo sapiens, UniProt P00519, Q252H); test: ABL mutant enzymatic assay; assay type: biochemical; settings: 10-dose, 3-fold dilution from 20 μM, 10 μM ATP
Excerpt: as §5

ABL^H396P = ABL^H396P (Homo sapiens, UniProt P00519, H396P); test: ABL mutant enzymatic assay; assay type: biochemical; settings: 10-dose, 3-fold dilution from 20 μM, 10 μM ATP
Excerpt: as §5

CCRF-CEM = test: NCI SRB anti-leukemic assay
K562 (Bcr-Abl positive) = test: Cellular proliferation assay; assay type: cell-based; settings: Homo sapiens, K562, read-out: GI50 K562 (Bcr-Abl positive)
Excerpt: (§6) We also tested AKE-72 against BCR-ABL-positive and BCR-ABL-negative cell lines.
as §3, §4

Ba/F3 mouse pro-B cells = test: Cellular proliferation assay; assay type: cell-based; settings: BaF3, read-out: GI50 Ba/F3 (mouse pro-B cell)
Excerpt: as §6, §3, §4

U937 (Bcr-Abl negative) = test: Cellular proliferation assay; assay type: cell-based; settings: Homo sapiens, U-937, read-out: GI50 U937 (Bcr-Abl negative)
Excerpt: as §6, §3, §4

CML = settings: cited from earlier work

With `CCN1CCN(Cc2ccc(NC(=O)c3cccc(C#Cc4cccc5[nH]nc(N)c45)c3)cc2C(F)(F)F)CC1` [Compound 5, 3-((3-amino-1H-indazol-4-yl)ethynyl)-N-(4-((4-ethylpiperazin-1-yl)methyl)-3-(trifluoromethyl)phenyl)benzamide] as the compound, how does the GI50 (MOLT-4; Homo sapiens, MOLT-4, read-out: GI50 MOLT-4) read?
Its GI50 is 0.227 µM.

And the CC50 (MOLT-4; Homo sapiens, MOLT-4, read-out: LC50 (half-maximal lethal concentration) MOLT-4)?
Its CC50 is 5.13 µM.

And the “TGI (total growth inhibition) MOLT-4” value (MOLT-4; five-dose assay)?
The value was 1.16 µM.

And the GI50 (K-562; Homo sapiens, K562, read-out: GI50 K-562)?
The GI50 was < 0.01 µM.

And the CC50 (K-562; Homo sapiens, K562, read-out: LC50 (half-maximal lethal concentration) K-562)?
Its CC50 is 5.25 µM.

What about the “TGI (total growth inhibition) K-562” value (K-562; five-dose assay) of the same compound?
The value was 0.154 µM.

And the “TGI K-562” value (K-562; five-dose assay)?
Its value is 0.154 µM.

What about the IC50 (BCR-ABL^WT; 10-dose duplicate, 3-fold serial dilution, 10 µM ATP) of the same compound?
The IC50 was < 0.00051 µM.

What about the “fold superior potency against BCR-ABL^WT versus lead indazole II” value (BCR-ABL^WT; relative to II) of the same compound?
The value was > 300 folds.

What about the inhibition at 0.05 µM (LYN) of the same compound?
Its inhibition at 0.05 µM is 83.9 to 99.3%.

And the inhibition at 0.05 µM (VEGFR2)?
The inhibition at 0.05 µM was 83.9 to 99.3%.

What about the inhibition at 0.05 µM (c-Kit) of the same compound?
Its inhibition at 0.05 µM is 83.9 to 99.3%.

And the “inhibition of the other investigated kinases” value [1]?
Its value is “no inhibition”.

And the inhibition at 0.05 µM (FLT3)?
Its inhibition at 0.05 µM is 83.9 to 99.3%.

And the inhibition at 0.05 µM (FGFR1)?
The inhibition at 0.05 µM was 83.9 to 99.3%.

What about the inhibition at 0.05 µM (FMS) of the same compound?
Its inhibition at 0.05 µM is 64.5 to 73%.

What about the inhibition at 0.05 µM (c-Src) of the same compound?
Its inhibition at 0.05 µM is 64.5 to 73%.

What about the inhibition at 0.05 µM (FYN) of the same compound?
The inhibition at 0.05 µM was 83.9 to 99.3%.

And the inhibition at 0.05 µM (RET)?
The inhibition at 0.05 µM was 83.9 to 99.3%.

And the inhibition at 0.05 µM (PDGFRβ)?
The inhibition at 0.05 µM was 83.9 to 99.3%.

And the inhibition at 0.05 µM (LCK)?
Its inhibition at 0.05 µM is 83.9 to 99.3%.

What about the inhibition at 0.05 µM (YES) of the same compound?
The inhibition at 0.05 µM was 83.9 to 99.3%.

What about the GI50 (HL-60(TB) [2]; HL-60, read-out: GI50 HL-60(TB)) of the same compound?
Its GI50 is 0.0979 µM.

And the CC50 (HL-60(TB) [2]; HL-60, read-out: LC50 (half-maximal lethal concentration) HL-60(TB))?
Its CC50 is 5.17 µM.

And the GI50 (RPMI-8226; Homo sapiens, RPMI-8226, read-out: GI50 RPMI-8226)?
The GI50 was 0.488 µM.

And the CC50 (RPMI-8226; Homo sapiens, RPMI-8226, read-out: LC50 (half-maximal lethal concentration) RPMI-8226)?
The CC50 was > 100 µM.

What about the “TGI (total growth inhibition) RPMI-8226” value (RPMI-8226; five-dose assay) of the same compound?
Its value is 2.66 µM.

And the GI50 (SR; Homo sapiens, SR, read-out: GI50 SR)?
The GI50 was 0.238 µM.

What about the CC50 (SR; Homo sapiens, SR, read-out: LC50 (half-maximal lethal concentration) SR) of the same compound?
The CC50 was > 100 µM.

What about the “TGI (total growth inhibition) SR” value (SR; five-dose assay) of the same compound?
Its value is 0.732 µM.

What about the “TGI (total growth inhibition) HL-60(TB)” value (HL-60(TB) [3]) of the same compound?
Its value is 1.04 µM.

What about the inhibition at 10 µM (CYP3A4; Vivid CYP450 screening kit (CYP3A4 isozyme)) of the same compound?
The inhibition at 10 µM was 90.6%.

What about the inhibition at 10 µM (CYP3A4; recombinant CYP3A4 (Vivid CYP450 screening kit)) of the same compound?
The inhibition at 10 µM was 96.57 ± 0.065%.

What about the inhibition at 10 µM (CYP2C9) of the same compound?
The inhibition at 10 µM was 50.67 ± 0.075%.

And the IC50 (CYP2D6)?
The IC50 was > 10 µM.

What about the inhibition at 10 µM (CYP2D6; human, recombinant CYP2D6 (Vivid CYP450 screening kit), 10 µM, single-dose duplicate, read-out: CYP inhibition % CYP2D6) of the same compound?
The inhibition at 10 µM was 13.92 ± 0.06%.

And the IC50 (CYP1A2)?
Its IC50 is > 10 µM.

What about the inhibition at 10 µM (CYP1A2; human, recombinant CYP1A2 (Vivid CYP450 screening kit), 10 µM, single-dose duplicate, read-out: CYP inhibition % CYP1A2) of the same compound?
The inhibition at 10 µM was 9.88 ± 0.09%.

And the IC50 (ABL^E255K)?
Its IC50 is 0.00898 µM.

What about the IC50 (ABL^F317I) of the same compound?
Its IC50 is 0.00312 µM.

What about the IC50 (ABL^M351T) of the same compound?
Its IC50 is 0.00344 µM.

What about the IC50 (ABL^Q252H) of the same compound?
Its IC50 is 0.00388 µM.

What about the IC50 (ABL^H396P) of the same compound?
Its IC50 is < 0.00102 µM.

What about the GI50 (CCRF-CEM; Homo sapiens, CCRF-CEM, read-out: GI50 CCRF-CEM) of the same compound?
Its GI50 is 0.436 µM.

And the CC50 (CCRF-CEM; Homo sapiens, CCRF-CEM, read-out: LC50 (half-maximal lethal concentration) CCRF-CEM)?
Its CC50 is > 100 µM.

And the “TGI (total growth inhibition) CCRF-CEM” value (CCRF-CEM; five-dose assay)?
Its value is 3.04 µM.

And the GI50 (K562 (Bcr-Abl positive))?
Its GI50 is 0.0059 µM.

And the GI50 (Ba/F3 mouse pro-B cells)?
Its GI50 is 4 ± 1.17 µM.

And the GI50 (U937 (Bcr-Abl negative))?
The GI50 was 1.9 ± 0.061 µM.

What does the source list for `Cc1ccc(NC(=O)c2ccc(CN3CCN(C)CC3)cc2)cc1Nc1nccc(-c2cccnc2)n1` [Imatinib]?
long-term success rate (CML; CML, after 10 years): 83.3%; overall 5-year survival rate (CML; patients diagnosed with CML): 89%

With `Cc1ccc(C(=O)Nc2ccc(CN3CCN(C)CC3)c(C(F)(F)F)c2)cc1C#Cc1cnc2cccnn12` [Ponatinib, reference compound] as the compound, how does the GI50 (Ba/F3 mouse pro-B cells) read?
Its GI50 is 0.708 ± 0.037 µM.
